{
  "source": "paper PMC3155278",
  "about": "(ACS Medicinal Chemistry Letters, 2011)",
  "tested_on": "REH cells",
  "assay": "Chemotaxis",
  "type": "cell-based",
  "conditions": "3 h migration",
  "data": [
    {"substance": "SDF-1α", "values": [
      {"measurement": "Lowest concentration inducing migration", "value": 10, "unit": "pM"},
      {"measurement": "Concentration at peak of induced migration (chemotaxis peak)", "setting": "bell-shaped dose-response", "value": 1, "unit": "nM"}
    ]}
  ]
}
